Test results from patent US7473760B2, “Cyclic peptide compositions for treatment of sexual dysfunction” (Palatin Technologies, Inc., priority 1999, dated 2009).

How the values were obtained:
[1] = tested on: male Sprague-Dawley rats; test: Induction of penile erections in male rats; assay type: in vivo, rat; conditions: 3 μg/kg intravenous; male rats observed 30 minutes
Protocol: Male Sprague-Dawley rats weighing 200-250 g were kept on a 12 hour on/off light cycle with food and water ad libitum. All behavioral studies were performed between 10 a.m. and 5 p.m. Groups of 6 rats were treated with peptides at a variety of doses, primarily 3 μg/kg, via intravenous administration. Immediately after administration, rats were placed into individual polystyrene cages (27 cm long, 16 cm wide, and 25 cm high) for behavioral observation. […] Using the above procedure, the mean number of penile erections for each rat on intravenous administration of 3 μg/kg was determined as shown on Table 2.

[2] = target: T1, hMC4-R (Homo sapiens, UniProt P32245); test: Stimulation of intracellular cAMP production in transfected HEK-293 cells expressing hMC4-R; assay type: cell-based
T1 construct: expressed in transfected cells; whole cells for cAMP
Protocol: Functional assays to determine agonist or antagonist status of a cyclic peptide of the invention may be conducted by any means known in the art. In one method, a cAMP assay is performed. Human MC4-R cells are grown to confluence in 96 well plates (plating approximately 250,000 cells per well). Identical sets of cells in triplicate are treated with 0.2 mM isobutylmethylxanthine (IBMX) and the chosen concentration of the peptide or alternatively the peptide in the presence of 20 nM NDP-MSH. Cells similarly treated but with only 20 nM NDP-MSH serve as positive controls in a volume of 200 μL. A buffer blank, as a negative control, is also included. Incubation is for one hour at 37° C. after which the cells are lysed by the addition of 50 μL of a cell lysis buffer. Total cAMP accumulated in 250 μL of this solution is quantitated using a commercially available low pH cAMP assay kit (Amersham BioSciences) by the procedure specified by the kit supplier. Any peptide showing cAMP accumulation in the same range as or higher than the positive control (buffer blank in the presence of α-MSH) is considered to be an agonist. A peptide showing accumulation in the same range as the negative control (buffer blank in the absence of α-MSH) is ineffective at the test concentration if the result is similar to the positive control where α-MSH is also present in the assay. A peptide showing accumulation in the same range as the negative control is considered to be an antagonist if there is inhibition in cAMP when α-MSH is present in the assay. Similar methods may be employed for MC3-R, using MC3-R cells.

[3] = target: T2, hMC5-R (Homo sapiens, UniProt P33032); test: Competitive inhibition binding assay with 125I-NDP-MSH, MC5-R; conditions: 1 μM peptide, HEK 293 human MC5, read-out: Percent Inhibition At 1 μM concentration MC5-R
T2 construct: expressed in transfected cells; host or cells: HEK 293 cells (membranes)
Protocol: Each assay was conducted in triplicate.
(§1) B16-F1 mouse melanoma cells were used as the source of MC1 receptors; HEK 293 cells, transfected with human melanocortin receptor sequences, were used as the source of MC3, MC4 and MC5 receptors.

[4] = target: T3, hMC3-R (Homo sapiens, UniProt P41968); test: Competitive inhibition binding assay with 125I-NDP-MSH, MC3-R; conditions: 1 μM peptide, HEK 293 human MC3, read-out: Percent Inhibition At 1 μM concentration MC3-R
T3 construct: expressed in transfected cells; host or cells: HEK 293 cells (membranes)
Protocol: Each assay was conducted in triplicate.
as §1

[5] = target: MC1-R (B16-F1 mouse melanoma cells) (Mus musculus, UniProt Q01727); test: Competitive inhibition binding assay with 125I-NDP-MSH, MC1-R; conditions: 1 μM peptide, B16-F1 mouse melanoma membranes, read-out: Percent Inhibition At 1 μM concentration MC1-R
Protocol: Each assay was conducted in triplicate.
as §1

[6] = target: T1, hMC4-R; test: Competitive inhibition binding assay with 125I-NDP-MSH, MC4-R; conditions: 1 μM peptide, HEK 293 human MC4, read-out: Percent Inhibition At 1 μM concentration MC4-R
Protocol: Each assay was conducted in triplicate.
as §1

[7] = tested on: men with psychogenic erectile dysfunction; conditions: subcutaneous, 0.025 to 0.157 mg/kg, cited from earlier work

T1 sequence (P32245 whole entry): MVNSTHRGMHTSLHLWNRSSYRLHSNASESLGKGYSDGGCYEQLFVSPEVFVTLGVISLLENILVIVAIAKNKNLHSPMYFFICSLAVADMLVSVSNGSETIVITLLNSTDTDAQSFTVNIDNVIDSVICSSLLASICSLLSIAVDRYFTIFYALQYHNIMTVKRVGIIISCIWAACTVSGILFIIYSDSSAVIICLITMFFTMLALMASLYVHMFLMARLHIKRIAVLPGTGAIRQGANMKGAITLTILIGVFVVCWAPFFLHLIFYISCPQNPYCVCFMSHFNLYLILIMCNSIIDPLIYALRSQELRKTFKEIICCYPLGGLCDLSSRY
T2 sequence (P33032 whole entry): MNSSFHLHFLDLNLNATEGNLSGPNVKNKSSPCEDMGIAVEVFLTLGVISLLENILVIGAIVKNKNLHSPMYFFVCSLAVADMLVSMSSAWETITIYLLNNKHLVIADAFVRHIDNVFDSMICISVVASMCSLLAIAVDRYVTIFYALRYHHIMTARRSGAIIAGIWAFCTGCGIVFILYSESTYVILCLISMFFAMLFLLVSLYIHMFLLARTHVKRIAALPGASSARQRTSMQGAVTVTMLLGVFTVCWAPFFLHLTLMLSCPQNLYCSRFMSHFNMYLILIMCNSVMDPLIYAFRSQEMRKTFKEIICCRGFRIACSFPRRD
T3 sequence (P41968 whole entry): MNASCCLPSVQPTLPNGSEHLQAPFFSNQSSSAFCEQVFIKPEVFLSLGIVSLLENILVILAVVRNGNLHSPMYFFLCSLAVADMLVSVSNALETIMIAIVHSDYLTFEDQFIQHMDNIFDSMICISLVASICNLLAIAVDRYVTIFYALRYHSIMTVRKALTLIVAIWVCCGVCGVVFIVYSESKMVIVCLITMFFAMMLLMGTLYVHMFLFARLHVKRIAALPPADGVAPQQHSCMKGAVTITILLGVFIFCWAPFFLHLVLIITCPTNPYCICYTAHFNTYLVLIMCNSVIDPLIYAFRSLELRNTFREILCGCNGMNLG
MC1-R (B16-F1 mouse melanoma cells), sequence (Q01727 whole entry): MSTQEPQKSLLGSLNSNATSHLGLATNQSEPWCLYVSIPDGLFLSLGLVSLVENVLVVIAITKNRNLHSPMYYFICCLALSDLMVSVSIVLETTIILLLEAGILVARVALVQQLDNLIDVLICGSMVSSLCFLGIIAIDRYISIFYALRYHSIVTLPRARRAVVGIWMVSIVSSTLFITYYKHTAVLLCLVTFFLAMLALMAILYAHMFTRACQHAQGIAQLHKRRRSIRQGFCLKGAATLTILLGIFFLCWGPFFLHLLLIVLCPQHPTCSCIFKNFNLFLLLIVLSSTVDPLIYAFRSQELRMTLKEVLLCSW

Molecule	Mean PE/Rat (mean number of penile erections for each rat) [1]	also measured
Ac-Nle-cyclo(-Asp-D-His-D-Phe-Arg-Trp-Lys)-OH	0.33	–
Ac-Nle-cyclo(-Asp-Phe-D-Phe-Arg-Trp-Lys)-OH	0.33	–
Ac-Nle-cyclo(-Asp-His-Phe-Arg-Trp-Lys)-OH	–	Functional Activity at MC4-R [2]: Inactive
Ac-Nle-cyclo(-Asp-Tyr-D-Phe-Arg-Trp-Lys)-OH	0.67	–
CCCC[C@H](NC(C)=O)C(=O)N[C@H]1CC(=O)NCCCC[C@@H](C(=O)O)NC(=O)[C@H](Cc2c[nH]c3ccccc23)NC(=O)[C@H](CCCCN)NC(=O)[C@@H](Cc2ccccc2)NC(=O)[C@H](Cc2c[nH]cn2)NC1=O [Ac-Nle-cyclo(-Asp-His-D-Phe-Lys-Trp-Lys)-OH]	1.33	inhibition at 1 µM [3]: 17%; inhibition at 1 µM [4]: 8%; inhibition at 1 µM [5]: 86%; Functional Activity at MC4-R [2]: Agonist; inhibition at 1 µM [6]: 46%
Ac-Nle-cyclo(-Asp-His-D-Phe(4-Cl)-Arg-Trp-Lys)-OH	0.33	–
Ac-Nle-cyclo(-Asp-His-D-Phe-Arg-D-Trp-Lys)-OH	0.83	–
Melanotan-II	–	transient side effects [7]: nausea, stretching and yawning, and decreased appetite; mean duration of tip rigidity greater than 80% ([7]; placebo 3.0 minutes, p=0.0045): 38 min
cyclo(-Succ-His-D-Phe-Arg-Trp-Lys)-OH (FRWK; cyclic succinyl, His, D-residue prefix; printed: Phe-Arg-Trp-Lys)	–	Functional Activity at MC4-R [2]: Agonist
Ac-Nle-cyclo(-Asp-Trp-D-Phe-Arg-Trp-Lys)-OH	0.5	–
Ahx-cyclo(-Asp-His-D-Phe-Arg-Trp-Lys)-OH	0.33	–
Ac-Nle-cyclo(-Asp-His-D-Phe-Arg-Nal 1-Lys)-OH	0.33	–
